# Laboratory results from ChEMBL document CHEMBL1157539, “Thousands of chemical starting points for antimalarial lead identification” (Nature, 2010).
# Tested on: Plasmodium falciparum
# Experiment: GSK_TCMDC: Inhibition of Plasmodium falciparum 3D7 in whole erythrocytes, using parasite LDH activity as an index of growth.
# Assay type: functional, organism-based
Compound,"XC50 (Plasmodium falciparum, 3D7) [nM]",XC50 [nM]
Cc1nc(O)c2c(ccc3ccc(CNc4ccc(C(=O)N[C@@H](CCC(=O)O)C(=O)O)cc4)cc32)n1,177,
COc1ccccc1N1CCN(Cc2c(O)ccc3cc(Br)ccc23)CC1,1150,
CCOc1cc(C2C(C(=O)OC(C)C)=C(C)NC3=C2C(=O)CC(c2ccc(Cl)cc2)C3)ccc1OC(C)=O (configuration not stated),932,
COc1cc2nc(N(C)Cc3cccc(I)c3)nc(N)c2cc1OC,863,
CCCNCc1ccc(-c2ccc(CN(Cc3ccc4c(c3)OCO4)C(=O)Cc3cccnc3)cc2)nc1,862,
C=CCOc1ccc(C(=O)Nc2nonc2-c2ccc(OC)c(OC)c2)cc1,642,
COC(=O)c1ccc(CC(C)NCC(O)c2cccc(Oc3cccc(C(F)(F)F)c3)c2)cc1 (configuration not stated),1170,
COc1ccccc1NS(=O)(=O)c1cc(C(=O)Nc2ccc(N3CCOCC3)c(S(=O)(=O)Nc3ccccc3Cl)c2)ccc1Cl,832,
Cc1cc(-c2c[nH]c3ncc(-c4cccc5ncccc45)cc23)ccc1C(=O)O,761,
Cc1[nH]c2ccc(O)cc2c1C1CCN(CCCCCNC(=O)/C=C/c2ccc(Cl)c(Cl)c2)CC1,771,
Cc1cc(Br)cnc1CCCCNC1=NC(=O)CN1C,366,
Cc1cccc(-c2nc(Nc3ccncc3)c3cc(N(C)C)ccc3n2)n1,710,
COc1cc(C(=O)N2COCC(CCCN3CCC(N4CCCC4)CC3)(c3ccc(Cl)c(Cl)c3)C2)cc(OC)c1OC (configuration not stated),785,
Cc1cc(C(=O)NC2CCN(CC3(c4ccc(Cl)cc4)CCC3)CC2)on1,92,
CCCCCCc1cc(Oc2c(I)cc(C[C@H](N)C(=O)O)cc2I)ccc1O,906,
COC(=O)c1ccc(NC(=O)Nc2ccc(Cn3ncc(N4CCCNCC4)c(Cl)c3=O)cc2)cc1,605,
CNC(=O)C(NC(=O)c1ccccc1C(=O)OC)c1ccccc1 (configuration not stated),556,
CC12CCC(C(=O)N(CC(O)Cn3c4ccc(Cl)cc4c4cc(Cl)ccc43)C1=O)C2(C)C (configuration not stated),844,
Cc1cc(-c2ccc3c(c2)CCN(CCC2CCC(NC(=O)/C=C/c4ccccc4F)CC2)CC3)on1 (configuration not stated),811,
CN(C)S(=O)(=O)c1ccc(N2CCN(CCC3(c4cccc(F)c4)CCN(C(=O)C(C)(C)C)CC3)CC2)c2nonc12,697,
CO/C(=C\C=C\c1cc2cc(Cl)c(Cl)cc2[nH]1)C(=O)NCCCN1CCN(c2ccncc2)CC1,733,
Cc1cnc(Nc2ccccc2)nc1NCCC(=O)Nc1ccccc1,1160,
CC(C)(C)SCC(O)Cn1c2ccc(Br)cc2c2cc(Br)ccc21 (configuration not stated),1000,
Oc1cccc(C2CCCN(Cc3cccc4cc[nH]c34)C2)c1 (configuration not stated),507,
Oc1cccc(-c2nc3cc(C4=NC5CCCCC5N4)ccc3[nH]2)c1 (configuration not stated),,530

Compound,"XC50 (Plasmodium falciparum, 3D7) [nM]",XC50 [nM]
Cc1cc(OCCCN2CCC(NS(=O)(=O)c3ccc(Cl)c(Cl)c3)C2)c2ccccc2n1 (configuration not stated),1050,
COc1ccc2nc(C)cc(NCc3ccc4ccccc4c3)c2c1,468,
COc1cc(CC(C)NCC(O)c2cccc(C(F)(F)F)c2)ccc1OCc1ccccc1 (configuration not stated),818,
C[C@@H]([C@@H](CCCc1ccc(Cl)cc1)C(=O)N[C@H](C(=O)Nc1cccnc1)C(C)(C)C)N(O)C=O,719,
O=C(Nc1cccc(F)c1)c1ccc(C(=O)NC2CCN(CC3CCCCC3)C2)cc1 (configuration not stated),929,
O=C(/C=C/c1ccc(Cl)c(Cl)c1)NCCCCCN1CCCN(C(=O)Nc2cccc(Cl)c2)CC1,669,
Clc1ccc(-c2cnc3ccc(NCCc4cccnc4)nn23)cc1,857,
O=C(/C=C/c1cc(C(F)(F)F)ccc1F)N1CCC(CN2CCC(c3c[nH]c4ccccc34)CC2)CC1,994,
CCn1ncc2c(N3CCCC3=O)cc(C(=O)N[C@@H](Cc3ccccc3)[C@H](O)CNC(C)(C)c3cccc(OC)c3)cc21,107,
COc1cc(O)c2c(=O)c(OC)c(-c3cccc(Cl)c3OCC(=O)O)oc2c1OC,586,
O=S(=O)(NC1CCC(CN2CCC(c3c[nH]c4ccccc34)CC2)CC1)c1ccc(Cl)c(Cl)c1 (configuration not stated),817,
COc1ccc(C(F)(F)F)cc1N1CCN(CCCCNC(=O)c2ccc(NC(=O)c3ccc(Cl)cc3)cc2)CC1,909,
Cc1nnc2c(NC(=O)NC3CCCC3)cc3ccc(-c4cccc(CN(C)C)c4)cc3n12,1160,
CCn1c(-c2nonc2N)nc2c(-c3ccccc3)ncc(OCCCCNCCc3ncc[nH]3)c21,852,
CC1(C)NC(N)=NC(=N)N1OCCCCOc1ccccc1,3.2,
O=C(NCCc1ccc(F)cc1)c1ccc(N2CCN(c3ccncc3)CC2)nc1,1420,
CC(C)(C)c1ccc2[nH]c(-c3ccc(/C=C/C(=O)NCc4ccc(Cl)c(Cl)c4)cc3)nc2c1,35.4,
CC(C)(C)c1ccc(-c2ccccc2CNC(=O)c2cccc(O)c2)cc1,267,
CN(CCCCNC(=O)c1ccc(-c2ccccc2)cc1)C1CCc2c(O)cccc2C1 (configuration not stated),724,
O=C1C[C@@H]([S+]([O-])Cc2nccs2)N1CCOCCCCCCc1ccc(Cl)cc1 (some centres not stated),1020,
NC(=O)c1ccc(C(=O)Nc2cccc(-c3ccc(-c4nc5cc(C(F)(F)F)ccc5[nH]4)cc3)c2)cc1,514,
CNc1nc(N/N=C/c2cc3c(cc2[N+](=O)[O-])OCO3)nc(Nc2cccc(C(F)(F)F)c2)n1,771,
CC(C)CNCc1ccc(-c2cccc(CN(CCN(C)C)C(=O)NCCc3ccccc3)c2)cc1,1060,
CCCCOP(=O)(COc1ccc(CCN(CC(O)COc2cccc3[nH]c4ccccc4c23)CC(O)COc2cccc3[nH]c4ccccc4c23)cc1)C1CCCCC1 (configuration not stated),939,
O=C(Nc1ccc(F)cc1F)NC1CCN(c2ccnc3cc(Cl)ccc23)C1 (configuration not stated),245,

Compound,"XC50 (Plasmodium falciparum, 3D7) [nM]",XC50 [nM]
COc1ccc2ncc(F)c([C@H](O)CN3CCC(NCc4cc5c(cn4)OCCO5)CC3)c2c1,292,
Cc1ccc(Cn2cnc3cc(C(=O)Nc4ccc(-c5ccc(CN(C)C)cc5)cc4)ccc3c2=O)o1,1260,
CCc1cc2c(cc1OCCN(C)C)N(C(=O)Nc1ccc(-c3ccncc3)c(Cl)c1)CC2,840,
CCc1sc(N2CCC(C)CC2)nc1C(=O)Nc1ccc(F)cc1C(F)(F)F,1090,
Cn1nc(-c2ccc(NC(=O)Nc3cc(C(F)(F)F)ccc3F)cc2)c2cnc(NCCc3c[nH]cn3)nc21,813,
COc1cc2nc(Nc3ccc4c(c3)OCCO4)nc(N)c2cc1OC,469,
COc1ccc(C=C2SC(=O)N=C2Nc2ccccc2)c(OC)c1,470,
COc1ccccc1CN1CCC(NC(=O)c2ccc(-c3ccc(N(C)C)cc3)s2)CC1,958,
CCCCc1cc(Cc2cnc(N)nc2N)cc(OC)c1OC,1040,
C=CCn1c(SCC(=O)Nc2cc(C)ccc2OC)nc2sc(C)cc2c1=O,417,
CCC(CC)OC(=O)C(C)c1cccc(C(=O)c2ccccc2)c1 (configuration not stated),833,
CC(C)(C)Cn1cc(-c2ccc(C(=O)NCCc3ccc(S(C)(=O)=O)cc3)cc2)c(N)n1.CC(C)(C)Cn1ncc(-c2ccc(C(=O)NCCc3ccc(S(C)(=O)=O)cc3)cc2)c1N,647,
COc1ccc(CC(C)NCC(O)c2cccc(Cl)c2)cc1C (configuration not stated),902,
O=C(O)c1ccc(-c2cnc3ccc(NC4CCC(O)CC4)nn23)cc1 (configuration not stated),995,
Nc1ncc(-c2ccsc2)c2ccc(-c3ccc4cn[nH]c4c3)cc12,814,
CN1CCCC(OC(=O)c2ccccc2)C1 (configuration not stated),756,
CN1C(=CC(=O)NC(=O)c2ccccc2)C(C)(C)c2ccccc21,637,
COc1ccc2ncc(F)c(CCN3CCC(NCc4cc(F)c5c(c4)OCCO5)CC3)c2n1,346,
Cc1cc(OCC2CCN(c3ncc(C(=O)NC4CC4)cc3Cl)CC2)ccc1F,789,
Cc1nc2ccccc2c(O)c1[N+](=O)[O-],1110,
COc1ccc2ncc(F)c([C@H](O)CN3CCC(NCc4ccc5c(c4)NC(=O)CS5)CC3)c2c1,185,
C=C1C(C(=O)OCC)=CN(CC)c2cc(O[C@H]3CCN(C(=O)OC(C)(C)C)C3)ccc21,548,
COc1ccc2nccc([C@@H](O)CN3CCC(NCc4cc5c(Cl)cc(Cl)cc5[nH]4)CC3)c2c1,58.5,
CCOC(=O)c1nc(-c2cccc(F)c2)[nH]c1N,748,
Cc1cccc2nc(-c3cccc(-c4ccc(NC(=O)NCc5ccccc5)cc4)c3)[nH]c12,231,

Compound,"XC50 (Plasmodium falciparum, 3D7) [nM]",XC50 [nM]
CCC(CC)n1c(C)cc2c3c(N)nc(N)nc3ccc21,3.2,
Oc1c(CNC2CCCCC2)cc(Cl)c2ccccc12,838,
CC[C@H](NC(=O)c1c(CC2CCN(CC(C)=O)CC2)c(-c2ccccc2)nc2ccccc12)c1ccccc1,381,
COc1ccc(S(=O)(=O)NC2CCN(CCCOc3ccnc4cc(Cl)ccc34)C2)cc1OC (configuration not stated),1050,
CSc1cccc(NC(=O)c2cc3ccccc3oc2=O)c1,833,
CCCCOc1c(CNCCCCCCNCc2ccc3ccccc3c2OCCCC)ccc2ccccc12,869,
CN(Cc1ccc(-c2ccc(C(F)(F)F)cc2)cc1)C(=O)Cn1c(CCc2cccc(F)c2F)cc(=O)c2ccc(OCC3CCCN3C)cc21 (configuration not stated),1070,
COc1cc(CCNC(=N)/C=C/c2ccc(Cl)cc2)ccc1Cl,241,
COc1ccc(NC(=O)Nc2cccc(-c3ccc(-c4nc5cccc(C)c5[nH]4)s3)c2)cc1,671,
C=CCOC(=O)N1CCC(CNCc2ccc(-c3cccc(-c4nc5cc(F)ccc5[nH]4)c3)cc2)C1 (configuration not stated),140,
Oc1ccc2c(c1NCC1CCCCC1)CCCC2,514,
Cc1cnn(-c2cccc(C(=O)NC3CCC(CCN4CCc5ccc(C#N)cc5CC4)CC3)c2)c1 (configuration not stated),932,
O=C(Nc1ccc(-c2ccc(-c3nc4ccccc4[nH]3)cc2)cc1)Nc1ccc(Cl)c(Cl)c1,98.8,
O=C(NCc1ccc(Cl)c(Cl)c1)c1ccc(C2CCCN(Cc3ccc4[nH]cnc4c3)C2)cc1 (configuration not stated),776,
O=C1OC(c2ccccc2)(c2ccccc2)CN1CC1CCN(Cc2ccc(O)c(Cl)c2)CC1,818,
CCOc1ccc(-c2nc3cc(-c4nc5cc(N6CCN(C)CC6)ccc5[nH]4)ccc3[nH]2)cc1,108,
Cc1cc(F)ccc1C1CCN(CCCCNC(=O)c2ccc(NC(=O)c3ccc(Cl)cc3)cc2)CC1,692,
COc1cc(C(=O)N2N=C(c3c(-c4ccccc4)c4cc(Br)ccc4[nH]c3=O)CC2c2cccc([N+](=O)[O-])c2)cc(OC)c1OC (configuration not stated),943,
Cc1ccc(C2CCN(CCCCNC(=O)c3ccc(NC(=O)c4ccc(Cl)cc4)cc3)CC2)c(C)c1,842,
O=C1c2ccccc2CCC1CCN1CC=C(c2c[nH]c3ccccc23)CC1 (configuration not stated),697,
COc1ccc(Cl)cc1N1CCN(CCCNC(=O)c2ccc(-c3nc4cc(Cl)c(C)cc4[nH]3)s2)CC1,776,
NC1=NC2(CCCCC2)N(OCCCCCCc2ccccc2)C(N)=N1,347,
